{"source": "patent US12391640B2", "about": "“Process of making a crystalline EDG-2 receptor antagonist” (HORIZON THERAPEUTICS IRELAND DAC, priority 2022, dated 2025)", "key": {"[1]": {"assay": "Solubility of the polymorphs at pH 7.4 in phosphate buffer", "assay_type": "physicochemical", "conditions": "pH 7.4 phosphate buffer, 25° C.", "procedure": "The solubility of the different polymorphs was determined at pH 7.4 in phosphate buffer at 25° C. Samples were analyzed as a function of time for each form to determine the equilibrium values. The residual solids from each sample were analyzed to verify that the form was unchanged during the experiment. The concentration (mg/mL) versus time data is listed below for each form: […]"}, "[2]": {"assay": "Solubility of Compound I in solvents at neutral/acidic pH", "assay_type": "physicochemical"}, "LPA1 receptor [3]": {"target": "T1, LPA1 receptor (Mus musculus, UniProt P61793)", "T1 construct": "from tissue; host or cells: living mouse (skin), endogenous receptor", "T1 sequence (P61793 whole entry)": "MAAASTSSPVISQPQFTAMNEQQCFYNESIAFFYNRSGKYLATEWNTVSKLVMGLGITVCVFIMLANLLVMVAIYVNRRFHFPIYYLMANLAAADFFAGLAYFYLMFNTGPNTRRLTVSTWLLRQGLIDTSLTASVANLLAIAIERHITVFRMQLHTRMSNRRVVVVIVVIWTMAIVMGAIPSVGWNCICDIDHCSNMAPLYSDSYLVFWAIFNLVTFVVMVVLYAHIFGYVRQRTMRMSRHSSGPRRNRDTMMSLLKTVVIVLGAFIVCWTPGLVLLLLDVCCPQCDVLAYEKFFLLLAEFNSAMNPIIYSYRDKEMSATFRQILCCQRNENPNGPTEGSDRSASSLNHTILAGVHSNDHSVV", "conditions": "mouse model of skin fibrosis; cited from earlier work"}, "LPA1 receptor [4]": {"target": "T2, LPA1 receptor (Homo sapiens, UniProt Q92633)", "T2 construct": "host or cells: patients (endogenous receptor), clinical study cited from Allanore et al. 2018", "T2 sequence (Q92633 whole entry)": "as the sequence (P61793 whole entry) above, with A4I, S8I, Q22P, Y40H, V61I, D193E, H194N, V269I, N331S, N335T counted along it", "conditions": "patients with dcSSc; cited from earlier work"}, "[5]": {"assay": "Physical stability of solid state forms at 80° C./75% RH, examined by FTIR", "assay_type": "physicochemical", "conditions": "1 week, open glass vials", "procedure": "The physical stability of Forms 1, 2, and 3 was investigated at 80° C./75% RH in order to determine if interconversion was observed. The samples were examined by FTIR after stressing 1 week in open glass vials."}, "[6]": {"assay": "Form conversion when slurried in solvent, determined by FTIR", "assay_type": "physicochemical", "conditions": "slurried in MEK or 1-pentanol at 60° C. or 70° C."}}}
{"molecule": "COc1ccc(C(=O)NC2(C(=O)O)Cc3ccccc3C2)cc1OCCc1cccc(C)c1", "note": "[Form 3, 2-(4-methoxy-3-(3-methylphenethoxy)benzamido)-2,3-dihydro-1H-indene-2-carboxylic acid]", "values": [{"measurement": "equilibrium solubility at 24 hours relative to Form 1", "setting": "[1]", "value": "more than double"}]}
{"molecule": "COc1ccc(C(=O)NC2(C(=O)O)Cc3ccccc3C2)cc1OCCc1cccc(C)c1", "note": "[Form 2, 2-(4-methoxy-3-(3-methylphenethoxy)benzamido)-2,3-dihydro-1H-indene-2-carboxylic acid]", "values": [{"measurement": "24 hour solubility result greater than Form 1", "setting": "[1]; 24 hour", "value": "more than 30%"}]}
{"molecule": "COc1ccc(C(=O)NC2(C(=O)O)Cc3ccccc3C2)cc1OCCc1cccc(C)c1", "note": "[Compound I, 2-(4-methoxy-3-(3-methylphenethoxy)benzamido)-2,3-dihydro-1H-indene-2-carboxylic acid]", "values": [{"measurement": "solubility in most solvents", "setting": "[2]", "value": "highly insoluble"}, {"measurement": "collagen content", "setting": "LPA1 receptor [3]", "value": "reduced collagen content"}, {"measurement": "dermal thickening", "setting": "LPA1 receptor [3]", "value": "reversed dermal thickening"}, {"measurement": "myofibroblast differentiation", "setting": "LPA1 receptor [3]", "value": "significantly inhibited myofibroblast differentiation"}, {"measurement": "outcome measures", "setting": "LPA1 receptor [4]", "value": "improved outcome measures"}, {"measurement": "target engagement", "setting": "LPA1 receptor [4]", "value": "demonstrated target engagement"}, {"measurement": "tolerability", "setting": "LPA1 receptor [4]", "value": "well tolerated"}]}
{"molecule": "COc1ccc(C(=O)NC2(C(=O)O)Cc3ccccc3C2)cc1OCCc1cccc(C)c1", "note": "[Form 1, 2-(4-methoxy-3-(3-methylphenethoxy)benzamido)-2,3-dihydro-1H-indene-2-carboxylic acid]", "values": [{"measurement": "changes in FTIR spectrum after stressing (physical stability)", "setting": "[5]", "value": "unchanged FTIR"}, {"measurement": "form conversion in slurry", "setting": "[6]", "value": "converts to crystalline Form 2"}]}
{"molecule": "COc1ccc(C(=O)NC2(C(=O)O)Cc3ccccc3C2)cc1OCCc1cccc(C)c1", "note": "[Form 4, 2-(4-methoxy-3-(3-methylphenethoxy)benzamido)-2,3-dihydro-1H-indene-2-carboxylic acid]", "values": [{"measurement": "equilibrium solubility at 24 hours relative to Form 1", "setting": "[1]", "value": "more than double"}]}
